# According to PubChem BioAssay (NCI):
# Values joined by “and” are separate entries in the source; they are usually repeats but may differ in a detail not shown here. Equal values may be shown once.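 Growth conditions: 96-well plates. Treatment: test compound, 48 hours, 5 concentrations. Analysis: linear interpolation between bracketing concentrations; unreached endpoints set to highest concentration. GI50 marks 50% less growth. TGI marks complete inhibition of growth.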
# What was measured:
# Experiment in all cases: NCI-60 cell line screen, 48 h
# [1] = test system: SR leukemia
# [2] = test system: OVCAR-5 ovarian
# [3] = test system: KM12 colon
# [4] = test system: OVCAR-3 ovarian
# [5] = test system: SF-268 CNS
# [6] = test system: OVCAR-4 ovarian
# [7] = test system: MALME-3M melanoma
# [8] = test system: NCI-H460 lung
# [9] = test system: IGROV1 ovarian
# [10] = test system: HT29 colon
SMILES,TGI [1] [µM],TGI [2] [µM],TGI [3] [µM],TGI [4] [µM],TGI [5] [µM],TGI [6] [µM],TGI [7] [µM],TGI [8] [µM],TGI [9] [µM],TGI [10] [µM],GI50 [1] [µM],GI50 [2] [µM],GI50 [3] [µM],GI50 [4] [µM],GI50 [5] [µM],GI50 [6] [µM],GI50 [7],GI50 [8] [µM],GI50 [9] [µM],GI50 [10] [µM]
Cc1c(CCCl)c(=O)n2c([nH]c3ccccc32)c1C#N,> 10,4.43,3.14,3.67,4.41,3.16,2.02,3.96,3.4,3.49,–,–,–,–,–,–,–,–,–,–
COc1cc(-c2cnn(C)c2)ccc1Nc1ncc2ccnc(N[C@@H](C)C(C)(C)C)c2n1,> 100,> 100,> 100,> 100,> 100,> 100,> 100,> 100,> 100,> 100,0.695,97.8,1.51,> 89.8,> 41.5,> 46.8,> 66 µM,0.819,> 100,> 50.6
COc1cc([C@H](C)c2ccc3ccccc3c2)cc(OC)c1OC,> 100,> 100,> 100,> 100,> 100,> 100,> 100,18,> 100,> 100,0.0528,0.997,0.276,0.272,1.67,1.17,1.36 µM,0.332,0.804,0.294
Cc1cc(S(=O)(=O)Nc2nc(N)nc(N3N=CCC3C)n2)c(S)cc1Cl (centres undefined),> 10,> 10,> 10,> 10,> 10,> 10,> 10,> 10,> 10,> 10,–,–,–,–,–,–,–,–,–,–
CCCCNc1nc(NC(C)(C)C)nc(NC(C)(C)C)n1,12.9,> 100,> 100,> 100,> 100,> 100,> 100,> 100,> 100,> 100,2.8,15.2,4.87,12.6,48.4,3.03,49.4 µM,5.13,16.3,2.37
Cc1cc(/C=C2\SC(=Nc3ccccc3)N(C3CCCC3)C2=O)c(C)n1-c1ccc(Cl)cc1,> 100,> 100,> 100,> 100,> 100,> 100,> 100,> 100,> 100,> 100,> 100,> 100,> 100,> 100,> 100,> 100,> 100 µM,> 100,> 100,> 100
O=c1ccn(C2OC(CO)C(O)C2O)c(=O)[nH]1 (centres undefined),> 1000,> 1000,> 1000,> 1000,> 1000,> 1000,> 1000,> 1000,> 1000,> 1000,> 1000,–,> 1000,> 1000,> 1000,> 1000,740 µM and > 10 µM,> 1000,> 1000,> 1000
